From US20240287154A1, “MC3R AGONIST PEPTIDES” (The Regents of the University of Michigan, priority 2021, published 2024)
Non-standard residues stand in square brackets, D forms with d. Residues, ends and D or L forms follow the SMILES beside them. Phe(4-F) = N[C@@H](Cc1ccc(F)cc1)C(=O)O; Phe(4-I) = N[C@@H](Cc1ccc(I)cc1)C(=O)O; Nle = CCCC[C@H](N)C(=O)O; Aib = CC(C)(N)C(=O)O

Assays:
in vitro = conditions: for half-life at 1 µM / remaining at 5 min, 1 µM / remaining at 0.25 h, 1 µM / remaining at 0.5 h, 1 µM / remaining at 1 h, 1 µM / remaining at 2 h, 1 µM / remaining at 4 h, 1 µM: mouse, plasma
Description: Pooled mouse plasma was prepared and stored at −80° C. prior to use. 396 μL mouse plasma was incubated at 37° C. for 5 minutes in 1.5 mL microcentrifuge tubes. 4 μL of 100 μM test or control compound/peptide was added to each tube and incubated for 0.5, 15, 30, 60, 120, or 240 minutes. An aliquot of 40 μL of each reaction was stopped by the addition of 4 volume of cold acetonitrile containing 200 ng/mL of Setmelanotide as an internal standard (IS). The incubation solution was centrifuged at 3500 rpm for 10 minutes to precipitate protein. The supernatant was used for LC/MS/MS analysis. The natural log peak area ratio (compound peak […] area/internal standard peak area) was plotted against time and the gradient of the line determined.

human MC3R = biological target: T1, human MC3R (Homo sapiens, UniProt P41968); test: Intracellular cAMP levels in live cells, MC3R agonist activity; format: cell-based; conditions: cAMP split-luciferase reporter cell line stably expressing human MC3R; direct agonist effect, measurement window 1
T1 construct: expressed in transfected cells
Description: The stable cell lines were grown and maintained in selection media consisting of Dulbecco's modified Eagle media (DMEM) with 4.5 g/l D-glucose, and 4 mM L-glutamine (Thermo Fisher Scientific, Waltham, MA), supplemented with 10% fetal bovine serum, 100 units/ml penicillin, 100 μg/ml streptomycin, 2.5 μg/ml amphotericin B, 200 μg/ml hygromycin B (for positive selection of the GScAMP22f luciferase reporter), and Geneticin™ (G418) 700 μg/ml (for MC3R or MC4R selection). Actual serum concentration during the assay is estimated to be about 1%. Cell line identity is routinely verified by qPCR and MC3R- and MC4R-specific oligonucleotides.
The assay for the determination of the CAMP response in live cells was described previously. […] Ccells were seeded at a density of 20,000 cells per well using 384-well poly-D lysine-coated, clear bottom, and black-wall assay plates (Corning Inc. Corning, NJ). Cells were allowed to attach to the plates for 18 to 24 h after which growth media was removed and 20 ul of 4% D-luciferin (Promega) in CO2 independent, serum-free medium (Thermo Fisher Scientific) was added to each well. […] Intracellular cAMP levels were measured using an FDSS 7000EX Functional Drug Screening System (Hamamatsu Photonics, Hamamatsu, Japan) in the Center for Chemical Genomics at the Life Sciences Institute. This instrument allowed the in-line addition of test-peptides and receptor agonists while simultaneously acquiring the luminescence signal from live cells. […] A submaximal forskolin (20 μM) concentration was also included to serve as a normalization reference to account for cell number variations and differences in assay transducer efficiency between cell lines.
With this set up it was possible to evaluate the direct agonist effect of the test-peptides on the MC3R and MC4R cell lines during measurement window 1, while the antagonist profile in the presence of EC90 α-MSH was determined on measurement window 2. […] EC50 or IC50 potency values were determined by non-linear regression by fitting the data to a sigmoid four-parameter variable slope model using the GraphPad Prism version 8.4 software package (San Diego CA).

human MC4R = human MC4R (Homo sapiens, UniProt P32245); test: Intracellular cAMP levels in live cells, MC3R selectivity relative to MC4R; format: cell-based; conditions: cAMP assays in human MC3R and human MC4R stable cell lines
human MC4R, sequence (P32245 whole entry): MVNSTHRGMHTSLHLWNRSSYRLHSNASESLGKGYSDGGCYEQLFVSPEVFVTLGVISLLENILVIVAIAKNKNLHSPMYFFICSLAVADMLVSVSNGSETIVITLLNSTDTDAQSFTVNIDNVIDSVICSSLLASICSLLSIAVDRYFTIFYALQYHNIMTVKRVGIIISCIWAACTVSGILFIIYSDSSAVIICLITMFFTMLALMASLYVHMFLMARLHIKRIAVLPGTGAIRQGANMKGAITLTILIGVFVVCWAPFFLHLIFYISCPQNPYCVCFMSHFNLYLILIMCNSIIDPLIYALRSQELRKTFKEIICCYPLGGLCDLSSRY

T1 sequence (P41968 whole entry): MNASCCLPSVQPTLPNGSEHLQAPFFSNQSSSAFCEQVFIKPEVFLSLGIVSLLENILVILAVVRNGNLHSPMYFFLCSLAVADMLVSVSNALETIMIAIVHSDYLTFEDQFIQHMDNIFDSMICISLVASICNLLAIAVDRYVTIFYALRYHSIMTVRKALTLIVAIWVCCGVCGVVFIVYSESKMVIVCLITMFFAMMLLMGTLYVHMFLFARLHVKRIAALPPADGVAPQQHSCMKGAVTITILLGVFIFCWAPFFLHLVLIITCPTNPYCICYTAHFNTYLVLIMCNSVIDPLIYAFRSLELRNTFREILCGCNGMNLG

Compound | half-life at 1 µM (in vitro) [min] | remaining at 5 min, 1 µM (in vitro) [%] | remaining at 0.25 h, 1 µM (in vitro) [%] | remaining at 0.5 h, 1 µM (in vitro) [%] | remaining at 1 h, 1 µM (in vitro) [%] | Mouse Plasma Stability, time point 0 min (in vitro; pooled mouse plasma, 37° C.) [%] | EC50 (human MC3R) [nM] | MC3R selectivity (relative to MC4R) (human MC4R) | remaining at 2 h, 1 µM (in vitro) [%] | remaining at 4 h, 1 µM (in vitro) [%] | Mouse Plasma Stability, time point 15 min (in vitro; pooled mouse plasma, 37° C., 15 min, in % (unit assumed))
CCCC[C@H](NC(=O)[C@@H](NC(=O)[C@@H](N)Cc1ccc(O)cc1)C(C)C)C(=O)N[C@H](C)C(=O)N[C@@H](Cc1c[nH]cn1)C(=O)N[C@@H](Cc1ccccc1)C(=O)N[C@@H](CCCNC(=N)N)C(=O)N[C@H](Cc1c[nH]c2ccccc12)C(=O)N[C@@H](CC(=O)O)C(=O)N[C@@H](CCCNC(=N)N)C(=O)N[C@H](Cc1ccccc1)C(=O)NCC(=O)O [CTX-1127, Tyr-Val-Nle-D-Ala-His-Phe-Arg-D-Trp-Asp-Arg-D-Phe-Gly] (H-YV[Nle][dA]HFR[dW]DR[dF]G-OH) | 1.28 | 6.71 | 0.25 | 0.27 | 0.04 | 100 | 2.5 | 95 | – | – | –
CCCC[C@H](NC(=O)[C@@H](NC(C)=O)C(C)C)C(=O)N[C@H](C)C(=O)N[C@@H](Cc1c[nH]cn1)C(=O)N[C@@H](Cc1ccccc1)C(=O)N[C@@H](CCCNC(=N)N)C(=O)N[C@H](Cc1c[nH]c2ccccc12)C(=O)N[C@@H](CC(=O)O)C(=O)N[C@@H](CCCNC(=N)N)C(=O)N[C@@H](Cc1ccccc1)C(=O)NCC(=O)O [CTX-1121, Val-Nle-D-Ala-His-Phe-Arg-D-Trp-Asp-Arg-Phe-Gly] (Ac-V[Nle][dA]HFR[dW]DRFG-OH) | 138 | 118 | – | 91.1 | 81.7 | 100 | 3.1 | 2,123 | 68.3 | 33.1 | 120.25
CSCC[C@H](N)C(=O)NCC(=O)N[C@@H](Cc1c[nH]cn1)C(=O)N[C@@H](Cc1ccccc1)C(=O)N[C@@H](CCCNC(=N)N)C(=O)N[C@H](Cc1c[nH]c2ccccc12)C(=O)N[C@@H](CC(=O)O)C(=O)N[C@@H](CCCNC(=N)N)C(=O)N[C@@H](Cc1ccccc1)C(=O)NCC(=O)O [CTX-1547, Met-Gly-His-Phe-Arg-D-Trp-Asp-Arg-Phe-Gly] (H-MGHFR[dW]DRFG-OH) | – | – | – | – | – | – | 1.5 | 54 | – | – | –
CSCC[C@H](NC(=O)[C@@H](N)C(C)C)C(=O)NCC(=O)N[C@@H](Cc1c[nH]cn1)C(=O)N[C@@H](Cc1ccccc1)C(=O)N[C@@H](CCCNC(=N)N)C(=O)N[C@H](Cc1c[nH]c2ccccc12)C(=O)N[C@@H](CC(=O)O)C(=O)N[C@@H](CCCNC(=N)N)C(=O)N[C@@H](Cc1ccccc1)C(=O)NCC(=O)O [CTX-1546, Val-Met-Gly-His-Phe-Arg-D-Trp-Asp-Arg-Phe-Gly] (H-VMGHFR[dW]DRFG-OH) | – | – | – | – | – | – | 1.7 | 51 | – | – | –
CCCC[C@H](NC(=O)[C@@H](NC(=O)[C@@H](N)Cc1ccc(O)cc1)C(C)C)C(=O)N[C@H](C)C(=O)N[C@@H](Cc1c[nH]cn1)C(=O)N[C@H](Cc1ccccc1)C(=O)N[C@@H](CCCNC(=N)N)C(=O)N[C@H](Cc1c[nH]c2ccccc12)C(=O)N[C@@H](CC(=O)O)C(N)=O [CTX-1109, Tyr-Val-Nle-D-Ala-His-D-Phe-Arg-D-Trp-Asp] (H-YV[Nle][dA]H[dF]R[dW]D-NH2) | – | – | – | – | – | – | 13.1 | 10.6 | – | – | –
CCCC[C@H](NC(=O)[C@@H](NC(=O)[C@@H](N)Cc1ccc(O)cc1)C(C)C)C(=O)N[C@H](C)C(=O)N[C@@H](Cc1c[nH]cn1)C(=O)N[C@@H](Cc1ccccc1)C(=O)N[C@@H](CCCNC(=N)N)C(=O)N[C@H](Cc1c[nH]c2ccccc12)C(=O)N[C@@H](CC(=O)O)C(=O)N[C@H](CCCNC(=N)N)C(=O)N[C@@H](Cc1ccccc1)C(=O)NCC(=O)O [CTX-1126, Tyr-Val-Nle-D-Ala-His-Phe-Arg-D-Trp-Asp-D-Arg-Phe-Gly] (H-YV[Nle][dA]HFR[dW]D[dR]FG-OH) | 1.61 | 11.7 | 0.16 | 0.03 | – | 100 | 3 | 43 | – | – | –
CCCC[C@H](NC(=O)[C@@H](NC(=O)[C@@H](N)Cc1ccc(O)cc1)C(C)C)C(=O)NC(C)(C)C(=O)N[C@@H](Cc1c[nH]cn1)C(=O)N[C@@H](Cc1ccccc1)C(=O)N[C@@H](CCCNC(=N)N)C(=O)N[C@H](Cc1c[nH]c2ccccc12)C(=O)N[C@@H](CC(=O)O)C(=O)N[C@@H](CCCNC(=N)N)C(=O)N[C@@H](Cc1ccccc1)C(=O)NCC(=O)O [CTX-1134, Tyr-Val-Nle-Aib-His-Phe-Arg-D-Trp-Asp-Arg-Phe-Gly] (H-YV[Nle][Aib]HFR[dW]DRFG-OH) | 2.77 | 28.6 | 2.97 | 0.14 | 0.02 | 100 | 2.5 | 566 | – | – | –
CCCC[C@H](NC(=O)[C@@H](NC(=O)[C@@H](N)Cc1ccc(O)cc1)C(C)C)C(=O)N[C@H](Cc1ccccc1)C(=O)N[C@@H](Cc1c[nH]cn1)C(=O)N[C@@H](Cc1ccccc1)C(=O)N[C@@H](CCCNC(=N)N)C(=O)N[C@H](Cc1c[nH]c2ccccc12)C(=O)N[C@@H](CC(=O)O)C(=O)N[C@@H](CCCNC(=N)N)C(=O)N[C@@H](Cc1ccccc1)C(=O)NCC(=O)O [CTX-1136, Tyr-Val-Nle-D-Phe-His-Phe-Arg-D-Trp-Asp-Arg-Phe-Gly] (H-YV[Nle][dF]HFR[dW]DRFG-OH) | – | – | – | – | – | – | 1.9 | 37 | – | – | –
CCCC[C@H](NC(C)=O)C(=O)N[C@H](C)C(=O)N[C@@H](Cc1c[nH]cn1)C(=O)N[C@@H](Cc1ccc(I)cc1)C(=O)N[C@@H](CCCNC(=N)N)C(=O)N[C@H](Cc1c[nH]c2ccccc12)C(=O)N[C@@H](CC(=O)O)C(=O)N[C@@H](CCCNC(=N)N)C(=O)N[C@@H](Cc1ccccc1)C(=O)NCC(=O)O [CTX-1167, Nle-D-Ala-His-Phe(4-I)-Arg-D-Trp-Asp-Arg-Phe-Gly] (Ac-[Nle][dA]H[Phe(4-I)]R[dW]DRFG-OH) | – | – | – | – | – | – | 4.8 | 937 | – | – | –
CCCC[C@H](NC(=O)[C@@H](NC(=O)[C@H](N)Cc1ccc(O)cc1)C(C)C)C(=O)N[C@H](C)C(=O)N[C@@H](Cc1c[nH]cn1)C(=O)N[C@@H](Cc1ccccc1)C(=O)N[C@@H](CCCNC(=N)N)C(=O)N[C@H](Cc1c[nH]c2ccccc12)C(=O)N[C@@H](CC(=O)O)C(=O)N[C@@H](CCCNC(=N)N)C(=O)N[C@@H](Cc1ccccc1)C(=O)NCC(=O)O [CTX-1125, D-Tyr-Val-Nle-D-Ala-His-Phe-Arg-D-Trp-Asp-Arg-Phe-Gly] (H-[dY]V[Nle][dA]HFR[dW]DRFG-OH) | 141 | 93.2 | 105 | 105 | 103 | 100 | 1.7 | 747 | 79.2 | 28.8 | –
CCCC[C@H](NC(C)=O)C(=O)N[C@H](C)C(=O)N[C@@H](Cc1c[nH]cn1)C(=O)N[C@@H](Cc1ccc(F)cc1)C(=O)N[C@@H](CCCNC(=N)N)C(=O)N[C@H](Cc1c[nH]c2ccccc12)C(=O)N[C@@H](CC(=O)O)C(=O)N[C@@H](CCCNC(=N)N)C(=O)N[C@@H](Cc1ccccc1)C(=O)NCC(=O)O [CTX-1518, Nle-D-Ala-His-Phe(4-F)-Arg-D-Trp-Asp-Arg-Phe-Gly] (Ac-[Nle][dA]H[Phe(4-F)]R[dW]DRFG-OH) | – | – | – | – | – | – | 1.9 | 1,559 | – | – | –
